# In ChEMBL document CHEMBL3872249, “Computer design, synthesis, and bioactivity analyses of drugs like fingolimod used in the treatment of multiple sclerosis” (Bioorg Med Chem, 2017):
# Tests used:
# Assay type in all cases: functional
# SH-SY5Y [1] = assay: Effect on CRHR1 mRNA expression in human SH-SY5Y cells at EC10 by qPCR method relative to beta-actin
# SH-SY5Y [2] = assay: Effect on C1S mRNA expression in human SH-SY5Y cells at EC10 by qPCR method relative to beta-actin
# SH-SY5Y [3] = assay: Effect on MAPK1 mRNA expression in human SH-SY5Y cells at EC10 by qPCR method relative to beta-actin
# SK-N-SH [4] = assay: Effect on IL2 mRNA expression in human SK-N-SH cells at EC10 by qPCR method relative to beta-actin
# SH-SY5Y [5] = assay: Effect on EDN1 mRNA expression in human SH-SY5Y cells at EC10 by qPCR method relative to beta-actin
# SK-N-SH [6] = assay: Effect on GRM2 mRNA expression in human SK-N-SH cells at EC10 by qPCR method relative to beta-actin
# SK-N-SH [7] = assay: Effect on CRHR1 mRNA expression in human SK-N-SH cells at EC10 by qPCR method relative to beta-actin
# SK-N-SH [8] = assay: Effect on LTA mRNA expression in human SK-N-SH cells at EC10 by qPCR method relative to beta-actin
# U-118-MG [9] = assay: Effect on VEGFA mRNA expression in human U118MG cells at EC10 by qPCR method relative to beta-actin
# SH-SY5Y [10] = assay: Effect on GRM2 mRNA expression in human SH-SY5Y cells at EC10 by qPCR method relative to beta-actin
# SH-SY5Y [11] = assay: Effect on IL18 mRNA expression in human SH-SY5Y cells at EC10 by qPCR method relative to beta-actin
# SH-SY5Y [12] = assay: Effect on LTA mRNA expression in human SH-SY5Y cells at EC10 by qPCR method relative to beta-actin
# SK-N-SH [13] = assay: Effect on MAPK1 mRNA expression in human SK-N-SH cells at EC10 by qPCR method relative to beta-actin
# U-118-MG [14] = assay: Effect on CRHR1 mRNA expression in human U118MG cells at EC10 by qPCR method relative to beta-actin
# SH-SY5Y [15] = assay: Effect on CXCL11 mRNA expression in human SH-SY5Y cells at EC10 by qPCR method relative to beta-actin
# SK-N-SH [16] = assay: Effect on AGT mRNA expression in human SK-N-SH cells at EC10 by qPCR method relative to beta-actin
# SH-SY5Y [17] = assay: Effect on HIF1A mRNA expression in human SH-SY5Y cells at EC10 by qPCR method relative to beta-actin
# SK-N-SH [18] = assay: Effect on RAF1 mRNA expression in human SK-N-SH cells at EC10 by qPCR method relative to beta-actin
# SH-SY5Y [19] = assay: Effect on AGT mRNA expression in human SH-SY5Y cells at EC10 by qPCR method relative to beta-actin
# SH-SY5Y [20] = assay: Effect on FASLG mRNA expression in human SH-SY5Y cells at EC10 by qPCR method relative to beta-actin
# SK-N-SH [21] = assay: Effect on HIF1 mRNA expression in human SK-N-SH cells at EC10 by qPCR method relative to beta-actin
# SH-SY5Y [22] = assay: Effect on GRM5 mRNA expression in human SH-SY5Y cells at EC10 by qPCR method relative to beta-actin
# U-118-MG [23] = assay: Effect on APP mRNA expression in human U118MG cells at EC10 by qPCR method relative to beta-actin
# SK-N-SH [24] = assay: Effect on PTGDR mRNA expression in human SK-N-SH cells at EC10 by qPCR method relative to beta-actin
# U-118-MG [25] = assay: Effect on MAL mRNA expression in human U118MG cells at EC10 by qPCR method relative to beta-actin
# U-118-MG [26] = assay: Effect on RAF1 mRNA expression in human U118MG cells at EC10 by qPCR method relative to beta-actin
# SK-N-SH [27] = assay: Effect on GRM5 mRNA expression in human SK-N-SH cells at EC10 by qPCR method relative to beta-actin
# U-118-MG [28] = assay: Effect on ADRB2 mRNA expression in human U118MG cells at EC10 by qPCR method relative to beta-actin
# U-118-MG [29] = assay: Effect on HLA-DRB1 mRNA expression in human U118MG cells at EC10 by qPCR method relative to beta-actin
# SH-SY5Y [30] = assay: Effect on PTGDR mRNA expression in human SH-SY5Y cells at EC10 by qPCR method relative to beta-actin
# SH-SY5Y [31] = assay: Effect on SOD1 mRNA expression in human SH-SY5Y cells at EC10 by qPCR method relative to beta-actin
# U-118-MG [32] = assay: Effect on TGFB2 mRNA expression in human U118MG cells at EC10 by qPCR method relative to beta-actin
# SH-SY5Y [33] = assay: Effect on CXCL9 mRNA expression in human SH-SY5Y cells at EC10 by qPCR method relative to beta-actin
# SK-N-SH [34] = assay: Effect on SOD1 mRNA expression in human SK-N-SH cells at EC10 by qPCR method relative to beta-actin
# U-118-MG [35] = assay: Effect on PLP1 mRNA expression in human U118MG cells at EC10 by qPCR method relative to beta-actin
# SK-N-SH [36] = assay: Effect on TNFRSF1B mRNA expression in human SK-N-SH cells at EC10 by qPCR method relative to beta-actin
# U-118-MG [37] = assay: Effect on TNFRSF1B mRNA expression in human U118MG cells at EC10 by qPCR method relative to beta-actin
# SH-SY5Y [38] = assay: Effect on HLA-DRB1 mRNA expression in human SH-SY5Y cells at EC10 by qPCR method relative to beta-actin
# SK-N-SH [39] = assay: Effect on CXCL9 mRNA expression in human SK-N-SH cells at EC10 by qPCR method relative to beta-actin
# U-118-MG [40] = assay: Effect on CXCL9 mRNA expression in human U118MG cells at EC10 by qPCR method relative to beta-actin
# U-118-MG [41] = assay: Effect on CCL5 mRNA expression in human U118MG cells at EC10 by qPCR method relative to beta-actin
# SK-N-SH [42] = assay: Effect on TGFB2 mRNA expression in human SK-N-SH cells at EC10 by qPCR method relative to beta-actin
# SK-N-SH [43] = assay: Effect on HLA-DRB1 mRNA expression in human SK-N-SH cells at EC10 by qPCR method relative to beta-actin
# U-118-MG [44] = assay: Effect on S1PR3 mRNA expression in human U118MG cells at EC10 by qPCR method relative to beta-actin
compound,measurement,setting,value
CCCCCCCCn1nnnc1CCC(N)(CO)CO.Cl,fold change (FC),SH-SY5Y [1],4.2103
same,fold change (FC),SH-SY5Y [2],-2.6686
same,fold change (FC),SH-SY5Y [3],-2.8875
same,fold change (FC),SK-N-SH [4],-4.9224
same,fold change (FC),SH-SY5Y [5],7.826
same,fold change (FC),SK-N-SH [6],-5.1941
same,fold change (FC),SK-N-SH [7],4.6448
same,fold change (FC),SK-N-SH [8],-5.1941
same,fold change (FC),U-118-MG [9],-4.4402
same,fold change (FC),SH-SY5Y [10],-4.9647
same,fold change (FC),SH-SY5Y [11],-3.9685
same,fold change (FC),SH-SY5Y [12],-2.54
same,fold change (FC),SK-N-SH [13],-10.5515
same,fold change (FC),U-118-MG [14],4.2936
same,fold change (FC),SH-SY5Y [15],-5.0428
CCCCCCCCc1ccc(CCC(N)(CO)CO)cc1 [FINGOLIMOD],fold change (FC),SK-N-SH [16],5.63
same,fold change (FC),SH-SY5Y [17],-8.3109
same,fold change (FC),SK-N-SH [18],-5.2666
same,fold change (FC),SH-SY5Y [19],3.9041
same,fold change (FC),SH-SY5Y [20],-3.0525
same,fold change (FC),SK-N-SH [21],-3.1808
same,fold change (FC),SH-SY5Y [22],-3.3753
same,fold change (FC),U-118-MG [23],-2.5646
same,fold change (FC),SK-N-SH [24],-4.3981
same,fold change (FC),U-118-MG [25],-3.8671
same,fold change (FC),U-118-MG [26],-3.8172
same,fold change (FC),SK-N-SH [27],-5.4523
same,fold change (FC),U-118-MG [28],-4.9171
same,fold change (FC),U-118-MG [29],-3.4313
same,fold change (FC),SH-SY5Y [30],-4.9331
CCCCCCCCn1nnnc1-c1ccc(C(O)CC(N)(CO)CO)cc1.Cl (centres undefined),fold change (FC),SH-SY5Y [31],-3.4032
same,fold change (FC),U-118-MG [32],-5.915
same,fold change (FC),SH-SY5Y [33],-3.0249
same,fold change (FC),SK-N-SH [34],-3.3929
same,fold change (FC),U-118-MG [35],3.4958
same,fold change (FC),SK-N-SH [36],-5.5404
same,fold change (FC),U-118-MG [37],-3.1207
same,fold change (FC),SH-SY5Y [38],-2.5613
same,fold change (FC),SK-N-SH [39],-4.8484
same,fold change (FC),U-118-MG [40],-4.1536
same,fold change (FC),U-118-MG [41],-5.3124
same,fold change (FC),SK-N-SH [42],-4.9847
same,fold change (FC),SK-N-SH [43],-4.1339
same,fold change (FC),U-118-MG [44],-4.6278
